The structures appear in SMILES notation. Read-outs that look alike come from different tables or passages of the source. Bounds are passed on as bounds.

The source of these data is patent publication US10807993B2, “Dihydrochromene derivatives” (Sumitomo Dainippon Pharma Co., Ltd., priority 2018, dated 2020).

One series concerns HT-29 cells. The series is described as follows: Inhibition test for sphere formation assay of cancer cells. Type of series: cell-based. The conditions noted are these: for IC50: sphere culture (ultra-low attachment, serum-free), 4 days, CellTiter-Glo, read-out: Sphere IC50 value (concentration for 50% inhibition of cell proliferation); for activity for inhibiting cell proliferation in the sphere culture condition: summary in words. On the procedure: Reliable methods established for measuring the self-renewal ability of cells which is one of the CSC's properties include a method for measuring the sphere-forming ability of cancer cells in non-adherent condition in the absence of serum (Cancer Res 65, 5506-5511 (2005)). HT-29 cells were available from American Type Culture Collection (ATCC). HT-29 cells were cultured at 37° C. under 5% CO2 using the McCoy's 5a medium containing 10% fetal bovine serum (FBS) and 1% penicillin/streptomycin. HT-29 cells were seeded in a 384 Well Black Clear Bottom Ultra-Low Attachment Microplate (Corning Cat. No. 3827) in an amount of 350-800 cells/well using the DMEM/F12 medium containing 2% B27 supplement (GIBCO), 20 ng/mL epidermal growth factor (EGF) (peprotech), 10 ng/mL basic fibroblast growth factor (bFGF) (peprotech), 5 μg/mL insulin (Sigma), and 1% penicillin/streptomycin. Each test compound was added into each well to adjust the final concentration of DMSO to 0.1%, and the cells were cultured for 4 days. The number of viable cells in each well was then measured with CellTiter-Glo™ Luminescent Cell Viability Assay (Promega) to calculate the concentration of each test compound for 50% inhibition of cell proliferation (Sphere IC50 value; […])
The experiment of Test 1 was performed for each compound of each Example. The concentration of each test compound for 50% inhibition of cell proliferation (Sphere IC50 value; μmol/L) is shown in the following Table.
On the technique in general: ATP-based viability assays read luminescence as a measure of living cells.

Another series has as its target hERG (Homo sapiens (Human), UniProt Q12809). Description: Test for evaluating hERG inhibition (QPatch HT, CHO cell strain stably expressing hERG). Particulars: for hERG/HT-29: hERG IC50 (Test 2) divided by HT-29 sphere IC50 (Test 1); for deviation between the concentration of inhibiting 50% cell proliferation and the concentration of inhibiting 50% hERG current: summary in words of hERG/HT-29. (Block of hERG is tested as a sign of cardiac risk.)

Setting [1] is: read-out: Binding inhibition (IC50, μM), concentration at which 50% of the hERG current was inhibited, CHO cells stably expressing hERG, QPatch HT.

hERG, sequence (Q12809 whole entry): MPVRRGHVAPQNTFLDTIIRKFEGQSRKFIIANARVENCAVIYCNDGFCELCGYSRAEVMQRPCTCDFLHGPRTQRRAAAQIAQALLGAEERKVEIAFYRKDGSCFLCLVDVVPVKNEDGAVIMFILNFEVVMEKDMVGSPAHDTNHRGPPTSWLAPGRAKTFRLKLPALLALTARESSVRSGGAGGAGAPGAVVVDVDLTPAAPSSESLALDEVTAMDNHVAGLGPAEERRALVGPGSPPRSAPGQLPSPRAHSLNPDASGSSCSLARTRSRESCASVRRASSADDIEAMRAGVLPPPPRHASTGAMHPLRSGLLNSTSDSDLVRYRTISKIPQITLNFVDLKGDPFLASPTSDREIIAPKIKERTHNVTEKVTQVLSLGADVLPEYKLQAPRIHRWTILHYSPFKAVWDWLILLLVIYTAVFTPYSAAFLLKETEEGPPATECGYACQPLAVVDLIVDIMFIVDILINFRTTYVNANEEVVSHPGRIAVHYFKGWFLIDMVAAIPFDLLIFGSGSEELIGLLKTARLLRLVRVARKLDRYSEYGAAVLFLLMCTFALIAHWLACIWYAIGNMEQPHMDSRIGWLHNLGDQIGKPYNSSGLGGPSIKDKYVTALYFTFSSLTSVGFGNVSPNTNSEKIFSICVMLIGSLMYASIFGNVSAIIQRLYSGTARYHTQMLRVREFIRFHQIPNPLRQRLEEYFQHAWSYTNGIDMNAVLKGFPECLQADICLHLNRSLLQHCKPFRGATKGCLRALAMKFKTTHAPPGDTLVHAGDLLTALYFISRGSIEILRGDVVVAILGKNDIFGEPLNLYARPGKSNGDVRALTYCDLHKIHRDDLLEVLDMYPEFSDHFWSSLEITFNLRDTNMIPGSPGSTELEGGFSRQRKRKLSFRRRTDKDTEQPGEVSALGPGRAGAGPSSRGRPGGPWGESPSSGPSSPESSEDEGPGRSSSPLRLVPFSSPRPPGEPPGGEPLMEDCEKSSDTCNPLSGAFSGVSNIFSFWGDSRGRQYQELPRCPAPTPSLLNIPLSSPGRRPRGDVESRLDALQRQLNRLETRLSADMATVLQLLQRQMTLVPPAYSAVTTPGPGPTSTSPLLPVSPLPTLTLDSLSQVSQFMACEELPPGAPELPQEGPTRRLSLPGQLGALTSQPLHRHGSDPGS
Experimental for hERG: To a cultured CHO cell strain which stably expresses hERG was added each test compound to adjust the final concentration of DMSO to 0.0135 to 0.5%. The hERG current was measured with QPatch HT (Sophion Inc.), and the concentration at which 50% of the hERG current was inhibited by each test compound (IC50 value; μM) was calculated.
The compounds of Examples were tested according to Test 2. And, the hERG/HT-29 was calculated by dividing the compound concentration obtained in Test 2 (50% of the hERG current is inhibited) by the compound concentration obtained in Test 1 (50% of the proliferation of HT-29 cells is inhibited).

Regarding `Cc1nccn1CC(=O)N1CCC2(CC1)COC1c3cc(Cl)ccc3OC(C)(C)C1C2` (racemic) [Example 1, Racemate of 1-[(4′aS,10′bS)-9′-chloro-5′,5′-dimethyl-4′a,10′b-dihydro-2′H,4′H,5′H-spiro[piperidine-4,3′-pyrano[3,2-c][1]benzopyran]-1-yl]-2-(2-methyl-1H-imidazol-1-yl)ethan-1-one and 1-[(4′aR,10′bR)-9′-chloro-5′,5′-dimethyl-4′a,10′b-dihydro-2′H, 4′H, 5′H-spiro[piperidine-4,3′-pyrano[3,2-c][1]benzopyran]-1-yl]-2-(2-methyl-1H-imidazol-1-yl)ethan-1-one], the IC50 is 80 nM in the series on HT-29 cells (Homo sapiens, 96 h) and < 0.3 µM against hERG.

In the case of `Cc1nc[nH]c1CN1CCC2(CC1)COC1c3ccc(Cl)cc3OC(C)(C)C1C2` (racemic) [Example 18, Racemate of (4′aR,10′bR)-8′-chloro-5′,5′-dimethyl-1-[(4-methyl-1H-imidazol-5-yl)methyl]-4′a,10′b-dihydro-2′H,4′H,5′H-spiro[piperidine-4,3′-pyrano[3,2-c][1]benzopyran] and (4′aS,10′bS)-8′-chloro-5′,5′-dimethyl-1-[(4-methyl-1H-imidazol-5-yl)methyl]-4′a,10′b-dihydro-2′H,4′H,5′H-spiro[piperidine-4,3′-pyrano[3,2-c][1]benzopyran]], in the series on HT-29 cells (Homo sapiens, 96 h), the IC50 is 20 nM. At hERG, the IC50 is 0.6 µM and the hERG/HT-29 is listed as 30.

On to `CC1(C)Oc2cc(Cl)ccc2C2OCC3(CCN(CCn4ccnc4)CC3)CC21` (racemic) [Example 38, Racemate of (4′aR,10′bR)-8′-chloro-1-[2-(1H-imidazol-1-yl)ethyl]-5′,5′-dimethyl-4′a,10′b-dihydro-2′H,4′H,5′H-spiro[piperidine-4,3′-pyrano[3,2-c][1]benzopyran] and (4′aS,10′bS)-8′-chloro-1-[2-(1H-imidazol-1-yl)ethyl]-5′,5′-dimethyl-4′a,10′b-dihydro-2′H,4′H,5′H-spiro[piperidine-4,3′-pyrano[3,2-c][1]benzopyran]], for which, in the series on HT-29 cells (Homo sapiens, 96 h), the IC50 is < 10 nM. For the same molecule, at hERG, the IC50 is 0.8 µM; the hERG/HT-29 is given as >80; the “deviation between the concentration of inhibiting 50% cell proliferation and the concentration of inhibiting 50% hERG current” value was “good deviation”.

For `Cc1nc[nH]c1CN1CCC2(CC1)COC1c3ccc(Cl)cc3OCC1C2` (racemic) [Example 64, Racemate of (4′aS,10′bR)-8′-chloro-1-[(4-methyl-1H-imidazol-5-yl)methyl]-4′a,10′b-dihydro-2′H,4′H,5′H-spiro[piperidine-4,3′-pyrano[3,2-c][1]benzopyran] and (4′aR,10′bS)-8′-chloro-1-[(4-methyl-H-imidazol-5-yl)methyl]-4′a,10′b-dihydro-2′H,4′H,5′H-spiro[piperidine-4,3′-pyrano[3,2-c][1]benzopyran]], the IC50 in the series on HT-29 cells (Homo sapiens, 96 h) came to 70 nM. At hERG, this molecule registered an IC50 of 0.4 µM and a hERG/HT-29 of 5.71.

In the case of `Cc1nccn1CC(=O)N1CCC2(CC1)COC1c3cc(Cl)ccc3OC(C)(C)C1C2` (single isomer, unassigned) [Example 4], the IC50 is 310 nM with HT-29 cells and < 0.3 µM at hERG (setting [1]).

With `Cc1nc[nH]c1CN1CCC2(CC1)COC1c3ccc(Cl)cc3OCC1C2` (single isomer, unassigned) [Example 64a], in the series on HT-29 cells, the IC50 is < 10 nM and the “activity for inhibiting cell proliferation in the sphere culture condition” value is reported as “potent activity”. At hERG, the hERG/HT-29 is >60; the “deviation between the concentration of inhibiting 50% cell proliferation and the concentration of inhibiting 50% hERG current” value is recorded as “good deviation”. Besides, the IC50 on hERG (setting [1]) amounted to 0.6 µM.

`Cc1nc[nH]c1CN1CCC2(CC1)COC1c3ccc(Cl)cc3OCC1C2` (single isomer, unassigned) [Example 64b]: the IC50 was 50 nM in the series on HT-29 cells and < 0.3 µM at hERG (setting [1]).

As for `Cc1nccn1CC(=O)N1CCC2(CC1)COC1c3cc(F)ccc3OC(C)(C)C1C2` (stereo not shown) [Example 2], the IC50 with HT-29 cells was 240 nM; at hERG (setting [1]), < 0.3 µM.

Consider `Cc1nccn1CC(=O)N1CCC2(CC1)COC1c3ccc(Cl)cc3OC(C)(C)C1C2` (stereo not shown) [Example 5], for which the IC50 in the series with HT-29 cells was 410 nM; at hERG (setting [1]), < 0.3 µM.

In the case of `Cc1nccn1CC(=O)N1CCC2(CC1)COC1c3cccc(Cl)c3OC(C)(C)C1C2` (stereo not shown) [Example 6], the IC50 with HT-29 cells was 610 nM; on hERG (setting [1]) it was < 0.3 µM.

Regarding `Cc1nccn1CC(=O)N1CCC2(CC1)COC1c3cc(Br)ccc3OC(C)(C)C1C2` (stereo not shown) [Example 7], the IC50 in the series with HT-29 cells was 90 nM; on hERG (setting [1]) it was < 0.3 µM.

As for `Cc1nccn1CC(=O)N1CCC2(CC1)COC1c3cccc(Br)c3OC(C)(C)C1C2` (stereo not shown) [Example 9], the IC50 in the series with HT-29 cells was 770 nM; at hERG (setting [1]) it was < 0.3 µM.

As for `Cc1nccn1CC(=O)N1CCC2(CC1)COC1c3cc(N=[N+]=[N-])ccc3OC(C)(C)C1C2` (stereo not shown) [Example 10], the IC50 with HT-29 cells is 240 nM; on hERG (setting [1]) it was < 0.3 µM.

Turning to `CC1(C)Oc2ccc(Cl)cc2C2OCC3(CCN(C(=O)Cn4cnc(CF)c4)CC3)CC21` (stereo not shown) [Example 16], in the series on HT-29 cells, the IC50 stood at 4400 nM.

As to `Cc1nc[nH]c1CN1CCC2(CC1)COC1c3ccc(Cl)cc3OC(C)(C)C1C2` (stereo not shown) [Example 20], in the series with HT-29 cells, the IC50 is < 10 nM and the “activity for inhibiting cell proliferation in the sphere culture condition” value is given as “potent activity”. Moreover, at hERG, the hERG/HT-29 is recorded as >140; the “deviation between the concentration of inhibiting 50% cell proliferation and the concentration of inhibiting 50% hERG current” value was “good deviation”. Further, the IC50 on hERG (setting [1]) came to 1.4 µM.

Take `Cc1nc[nH]c1CN1CCC2(CC1)COC1c3cc(F)ccc3OC(C)(C)C1C2` (stereo not shown) [Example 21]: the IC50 in the series on HT-29 cells came out at 210 nM; at hERG (setting [1]) it was 1.5 µM. On hERG, this molecule gave a hERG/HT-29 of 7.14.

As for `Cc1nc[nH]c1CN1CCC2(CC1)COC1c3cc(F)ccc3OC(C)(C)C1C2` (stereo not shown) [Example 22], the IC50 in the series with HT-29 cells worked out at 240 nM; on hERG (setting [1]), 1.6 µM. At hERG, this molecule registered a hERG/HT-29 of 6.67.

With `Cc1nc[nH]c1CN1CCC2(CC1)COC1c3cc(F)ccc3OC(C)(C)C1C2` (stereo not shown) [Example 23], the IC50 in the series with HT-29 cells was 60 nM; on hERG (setting [1]), 1.4 µM. The hERG/HT-29 at hERG turned out to be 23.3.

In the case of `Cc1nc[nH]c1CN1CCC2(CC1)COC1c3cc(Cl)ccc3OC(C)(C)C1C2` (stereo not shown) [Example 24], the IC50 in the series with HT-29 cells came to 90 nM; on hERG (setting [1]), 3.8 µM. Further, the hERG/HT-29 at hERG was 42.2.

Regarding `Cc1nc[nH]c1CN1CCC2(CC1)COC1c3cc(Cl)ccc3OC(C)(C)C1C2` (stereo not shown) [Example 25], the IC50 came out at 70 nM with HT-29 cells and 0.4 µM on hERG (setting [1]). For the same molecule, the hERG/HT-29 at hERG was 5.7.

With `Cc1nc[nH]c1CN1CCC2(CC1)COC1c3cc(Cl)ccc3OC(C)(C)C1C2` (stereo not shown) [Example 26], in the series with HT-29 cells, the IC50 is < 10 nM and the “activity for inhibiting cell proliferation in the sphere culture condition” value was “potent activity”. Moreover, at hERG, the hERG/HT-29 is >60; the “deviation between the concentration of inhibiting 50% cell proliferation and the concentration of inhibiting 50% hERG current” value is reported as “good deviation”. Also, the IC50 at hERG (setting [1]) worked out at 0.6 µM.

In the case of `Cc1nc[nH]c1CN1CCC2(CC1)COC1c3cccc(Cl)c3OC(C)(C)C1C2` (stereo not shown) [Example 27], the IC50 in the series on HT-29 cells stood at 350 nM; at hERG (setting [1]), 0.4 µM. The same molecule yielded a hERG/HT-29 at hERG of 1.14.

On to `CCc1nc(C)c(CN2CCC3(CC2)COC2c4cc(Cl)ccc4OC(C)(C)C2C3)[nH]1` (stereo not shown) [Example 28], for which, in the series with HT-29 cells, the IC50 is 90 nM.

Consider `CC1(C)Oc2ccc(Cl)cc2C2OCC3(CCN(Cc4c[nH]cn4)CC3)CC21` (stereo not shown) [Example 29], for which the IC50 in the series on HT-29 cells stood at 810 nM; on hERG (setting [1]), 2.6 µM. Further, on hERG, the hERG/HT-29 was found to be 3.21.

`Cc1nc(CN2CCC3(CC2)COC2c4cc(Cl)ccc4OC(C)(C)C2C3)c[nH]1` (stereo not shown) [Example 30]: the IC50 with HT-29 cells came to 2280 nM; on hERG (setting [1]) it was 1.7 µM. This molecule also gave a hERG/HT-29 on hERG of 7.46.

Turning to `Cn1ccnc1CN1CCC2(CC1)COC1c3cc(Cl)ccc3OC(C)(C)C1C2` (stereo not shown) [Example 36], the IC50 with HT-29 cells stood at 40 nM.

Take `Cc1nccn1CCN1CCC2(CC1)COC1c3cc(Cl)ccc3OC(C)(C)C1C2` (stereo not shown) [Example 46]: at hERG, the hERG/HT-29 is recorded as >120; the “deviation between the concentration of inhibiting 50% cell proliferation and the concentration of inhibiting 50% hERG current” value is “good deviation”. Besides, at hERG (setting [1]), the IC50 was found to be 1.2 µM.

As for `CC1(C)Oc2ccc(F)cc2C2OCC3(CCN(CCn4ccnc4CO)CC3)CC21` (stereo not shown) [Example 52], in the series with HT-29 cells, the IC50 is < 10 nM and the “activity for inhibiting cell proliferation in the sphere culture condition” value is “potent activity”.

Regarding `CC1(C)Oc2ccc(Cl)cc2C2OCC3(CCN(CCn4ccnc4CO)CC3)CC21` (stereo not shown) [Example 53], in the series with HT-29 cells, the IC50 was < 10 nM and the “activity for inhibiting cell proliferation in the sphere culture condition” value is “potent activity”.

In the case of `COC(=O)c1cn(CCN2CCC3(CC2)COC2c4cc(Cl)ccc4OC(C)(C)C2C3)cn1` (stereo not shown) [Example 59], the IC50 in the series on HT-29 cells came out at 980 nM.

`CC1(C)Oc2cc(Cl)ccc2C2OCC3(CCN(CCn4ccnc4CCN)CC3)CC21` (stereo not shown) [Example 62]: on hERG (setting [1]), the IC50 turned out to be 6.3 µM.
